# How the values were obtained:
# [1] = tested on: Huh7, H1299, and HCT116; assay: Cleaved-parp protein on western blot; type: cell-based; settings: data not shown
# Source text: (§1) miRNA-193a treatment in various cancer cell lines decreased cell viability over time as measured by either an MTS assay or by cell count. It enhanced apoptosis induction over time as measured by a caspase 3/7 apoptosis assay. […] It is of note that due to intrinsic characteristics and gene mutation status of each cell line, performing one method to detect apoptosis is not always ideal for all cell lines.
# [2] = tested on: A2058; assay: Caspase 3/7 apoptosis assay; type: cell-based, human; settings: 10 nM, normalized to mock
# Procedure: (§2) Depending on cancer cell type 3000-6000 cells were seeded in a 96 well plate. After cells attached, they were transfected with different concentrations of miRNA-193a and apoptosis induction was measured at different time points. This assay was performed using Promega kit. 100 uL of caspase reagent was added to 100 uL of media in each well in 96-well plate and incubated for 2 hours in the dark at room temperature. The luminescent signal was read on a luminescent plate reader.
# (§3) Different biological effects of miRNA-193a-3p have been tested in various cancer cell lines (see Table 13). For this, various cells were treated with miRNA-193a at different concentrations (1, 3, 10 nM). For all experiments controls (untreated, mock and scrambled) were measured. All assays were performed at 24h, 48h and 72h time points. Data shown in Table 13 are the results for miRNA-193a at 10 nM concentration at indicated time points. All the results have been quantified and normalized to the mock control.
# as §1
# [3] = tested on: HeP3B, SNU449; assay: Caspase 3/7 apoptosis assay; type: cell-based, human; settings: 10 nM, normalized to mock
# Procedure: as §2, §3, §1
substance,measurement,setting,value
"miRNA-193a: duplex of the miRNA-193a-3p of SEQ ID NO: 218 (mimic, sense) with antisense strand SEQ ID NO: 219; naked in vitro, formulated in vivo (sense UGGGACUUUGUAGGCCAGUUTT; antisense AACUGGCCUACAAAGUCCCAGU; chemistry not given here; listed as Homo sapiens)",Cleaved-parp protein on western blot,[1],enhanced cleaved-parp protein
same,Apoptosis (48/72 h),[2],↑↑ (Induction > 2x)
same,Apoptosis (48/72 h),[3],↑ (Induction < 2x)

# — patent US20210038732A1, “ANTICANCER MICRORNA AND LIPID FORMULATIONS THEREOF” (INTERNA TECHNOLOGIES B.V., priority 2018, published 2021)
